Test results from PubChem BioAssay AID652072 (Broad Institute, 2013).
Results filed as inconclusive are left out.

Tested on: LOX IMVI melanoma, caspase 3/7 luminescence, apoptosis
Test: apoptosis induction over several timepoints, melanoma line – cell-based, LOX IMVI, luminescence, multiple timepoints, dry powder, mechanism study for HRAS target identification, dose response (AID 652072)
Conditions: measured here: caspase 3/7, timepoint 3

For `CCC(=O)N(c1ccc(OC)c(Cl)c1)C(C(=O)NCCc1ccccc1)c1cccs1` (stereo unspecified), the AC40 was > 35 µM.
